Measured values: patent US9932353B2, “Imidazopyrimidine macrocycles as inhibitors of human immunodeficiency virus replication” (VIIV HEALTHCARE UK (NO. 5) LIMITED, priority 2014, dated 2018)
Where two headings read alike, the source gives them in different places.

System: recombinant NL-RLuc virus (HIV NL4-3 with Renilla Luciferase) in MT-2 cells
Assay: Inhibition of HIV replication (NL-RLuc virus in MT-2 cells, luciferase readout)
Type: cell-based
Source text: Inhibition of HIV Replication:
A recombinant NL-RLuc proviral clone was constructed in which a section of the nef gene from NL4-3 was replaced with the Renilla Luciferase gene. This virus is fully infectious and can undergo multiple cycles of replication in cell culture. In addition, the luciferous reporter provides a simple and easy method for quantitating the extent of virus growth and consequently, the antiviral activity of test compounds. The plasmid pNLRLuc contains the proviral NL-Rluc DNA cloned into pUC18 at the PvuII site. The NL-RLuc virus was prepared by transfection of 293T cells with the plasmid pNLRLuc. Transfections were performed using the LipofectAMINE PLUS kit from Invitrogen (Carlsbad, Calif.) according to the manufacturer and the virus generated was titered in MT-2 cells. For susceptibility analyses, the titrated virus was used to infect MT-2 cells in the presence of compound, and after 5 days of incubation, cells were processed and quantitated for virus growth by the amount of expressed luciferase. Assay media was RPMI 1640 supplemented with 10% heat inactivated fetal bovine serum (FBS), 100 units/ml penicillin G/100 units/ml streptomycin, 10 mM HEPES buffer pH 7.55 and 2 mM L-glutamine. The results from at least 2 experiments were used to calculate the EC50 values. Luciferase was quantitated using the Dual Luciferase kit from Promega (Madison, Wis.). Susceptibility of viruses to compounds was determined by incubation in the presence of serial dilutions of the compound. The 50% effective concentration (EC50) was calculated by using the exponential form of the median effect equation where (Fa)=1/[1+(ED50/drug conc.)^m] (Johnson V A, Byington R T. Infectivity Assay. In Techniques in HIV Research. ed. Aldovini A, Walker B D. 71-76. New York: Stockton Press. 1990).

[1] = NL-RLuc virus, MT-2 cells, 5 days of incubation, 10% FBS, luciferase, read-out: EC50

| Molecule | EC50 [1] | EC50 (MT2, 120 h) |
| --- | --- | --- |
| Cc1nc2nc3cn2c(c1[C@H](OC(C)(C)C)C(=O)O)N1CCC(C)(CC1)OCCCCC(C)Oc1ccc(F)cc1-c1cccc-3c1 (stereo partly drawn) [Example 2, (2S)-2-(tert-butoxy)-2-[(22S/R)-17-fluoro-4,22,28-trimethyl-21,27-dioxa-1,5,7,34-tetraazahexacyclo[26.2.2.1^6,^9.1^10,^14.0^2,^7.0^15,^20]tetratriaconta-2,4,6(34),8,10(33),11,13,15(20),16,18-decaen-3-yl]acetic Acid] | 8 nM | – |
| (2S)-2-(tert-butoxy)-2-[(22S/R)-17-fluoro-4,22,28-trimethyl-21,27-dioxa-1,5,7,34-tetraazahexacyclo[26.2.2.1^6,^9.1^10,^14.0^2,^7.0^15,^20]tetratriaconta-2,4,6(34),8,10(33),11,13,15(20),16,18-decaen-3-yl]acetic Acid [Example 3] | 77 nM | – |
| Cc1ccc2c(c1)-c1cccc(c1)-c1cn3c(c([C@H](OC(C)(C)C)C(=O)O)c(C)nc3n1)N1CCC(C)(CC1)OCCCC[C@H](C)O2 [Example 1, (2S)-2-(tert-Butoxy)-2-[(22S)-4,17,22,28-tetramethyl-21,27-dioxa-1,5,7,34-tetraazahexacyclo[26.2.2.1^6,^9.1^10,^14.0^2,^7.0^15,^20]tetratriaconta-2,4,6(34),8,10(33),11,13,15(20),16,18-decaen-3-yl]acetic Acid] | – | 8 nM |
